Laboratory results taken from US20200306337A1, “Bioactive Metabolities Encoded by the Human Microbiome Using Primary Sequence Alone” (The Rockefeller University, priority 2017, published 2020).
Non-standard residues stand in square brackets, D forms with d. Residues, ends and D or L forms follow the SMILES beside them. *: point of attachment. Tetradecanoyl(3S-OH) = CCCCCCCCCCC[C@H](O)CC(=O)*

Key:
MRSA USA300 = experiment: Two-dimensional carbenicillin-humimycin A synergy susceptibility assay; format: cell-based, Staphylococcus aureus
Experimental: b) Synergy assays. Synergistic β-lactam-humimycin activities were assessed through a two-dimensional (2D) susceptibility assay. Two fold serial dilutions were carried out as described above. Carbenicillin (a β-lactam antibiotic) was diluted serially from left to right, and humimycin was diluted serially from top to bottom. The highest concentration tested for both antibiotics was 32 μg/mL. Fractional inhibitory concentration (FIC) is defined as the ratio of the apparent synergistic MIC divided by the MIC of the antibiotic measured alone.

MRSA clinical isolates = format: cell-based, S. aureus
Experimental: a) Standard assays. Minimal inhibitory concentration (MIC) assays were performed in duplicate in 96-well microtiter plates based on the protocol recommended by Clinical and Laboratory Standards Institute (CLSI, 2012). DMSO stock solutions of syn-BNPs (12.8 mg/mL) were added to the first well in a row and serially diluted (2 fold per transfer) across the microtiter plate. The last well was reserved for a peptide-free control. Overnight cultures of bacteria were diluted 5,000-fold and 50 μL was used as an inoculum in each well. MIC values were determined by visual inspection after 18 h incubation (37° C., static growth).

MICs (MRSA clinical isolates)	MIC (MRSA USA300; Staphylococcus aureus, carbenicillin alone)	MIC of carbenicillin in the presence of humimycin A (MRSA USA300; in the presence of 2 μg/mL humimycin A (0.25×MIC))	Structure (SMILES)	synergy with carbenicillin in inhibiting growth (MRSA USA300; FIC values ≤0.5 defines synergy, n=3)
8 to 128 µg/mL	–	–	CCCCCCCCCCC[C@H](O)CC(=O)N[C@@H](Cc1ccc(O)cc1)C(=O)N[C@@H](CO)C(=O)N[C@H](Cc1ccc(O)cc1)C(=O)N[C@@H](Cc1ccccc1)C(=O)N[C@@H](C(=O)N[C@H](C(=O)N[C@H](C(=O)O)C(C)C)C(C)C)[C@H](C)O [Humimycin A] ({Tetradecanoyl(3S-OH)}-YS[dY]F[dT]VV-OH; C-terminus assumed)	act synergistically
–	32 µg/mL	1 µg/mL	CC1(C)S[C@@H]2[C@H](NC(=O)C(C(=O)O)c3ccccc3)C(=O)N2[C@H]1C(=O)O (stereo partly shown) [carbenicillin]	–
